# Values quoted from earlier work, collected in patent US8263564B2, “Iron-carbohydrate complex compounds” (Vifor (International) AG, priority 2007, dated 2012).
# System: mice
# Details: intravenously on mice; Berenbaum et al. 1960 cited in Geisser et al. 1992
compound,measurement,value
O=S(=O)([O-])[O-].[Fe+2] [Fe(II) sulfate],LD50,11 mg of Fe/kg of body weight
